# Data taken from patent US12600714B2, “Substituted pyrazinecarboxamide compounds for treating diseases related to EGFR mutation” (WIGEN BIOMEDICINE TECHNOLOGY (SHANGHAI) CO., LTD., priority 2020, dated 2026).
# Legend:
# [1] = tested on: EGFR (del19/T790M/C797S); test: HTRF inhibitory activity assay against EGFR (del19/T790M/C797S) enzyme; assay type: biochemical
# Outline: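 Wild-type or mutant EGFR preincubated with serially diluted compound 10 min at 28 °C, then reacted 40 min at room temperature with biotinylated TK substrate and ATP. Phosphorylation detected by HTRF (Eu-cryptate anti-TK antibody, streptavidin-XL665, 60 min), 665/615 nm ratio; % inhibition and IC50 vs control.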
# [2] = tested on: A431 (EGFR WT) cells; test: Antiproliferative activity against A431 (EGFR WT) cells, Cell Titer Glow; assay type: cell-based; conditions: Homo sapiens, A-431, 72 h; three days after addition of compounds; read-out: Antiproliferative activity A431 wild-type (WT) IC50
# Method: (§1) Antiproliferative Activity of the Compounds Disclosed Herein Against Ba/F3 (EGFR^del19/T790M/C797S) Triple-Mutant Cells and A431 (EGFR WT) Cells
# (§2) • 3000 Ba/F3 cells carrying EGFR (del19/T790M/C797S) or 2000 A431 cells were seeded in a 384-well plate. After one day, serially diluted compounds were added (up to 500 nM for Ba/F3 cells and up to 10 μM for A431 cells). Three days after the addition of the compounds, Cell Titer Glow was added to evaluate cell growth and the percentage cell growth inhibition by the compounds and the IC50 values were calculated.
# [3] = biological target: Ba/F3 (EGFR^del19/T790M/C797S) triple-mutant cells (Homo sapiens, UniProt P00533, T790M/C797S, cells depend on it, form not given); test: Antiproliferative activity against Ba/F3 (EGFR del19/T790M/C797S) triple-mutant cells, Cell Titer Glow; assay type: cell-based; conditions: three days after addition of compounds; read-out: Antiproliferative activity BaF3(EGFR^del19/T790M/C797S) IC50
# Sequence of Ba/F3 (EGFR^del19/T790M/C797S) triple-mutant cells (P00533 with tags, fused parts or gaps DEL746-750/T790M/C797S, form open): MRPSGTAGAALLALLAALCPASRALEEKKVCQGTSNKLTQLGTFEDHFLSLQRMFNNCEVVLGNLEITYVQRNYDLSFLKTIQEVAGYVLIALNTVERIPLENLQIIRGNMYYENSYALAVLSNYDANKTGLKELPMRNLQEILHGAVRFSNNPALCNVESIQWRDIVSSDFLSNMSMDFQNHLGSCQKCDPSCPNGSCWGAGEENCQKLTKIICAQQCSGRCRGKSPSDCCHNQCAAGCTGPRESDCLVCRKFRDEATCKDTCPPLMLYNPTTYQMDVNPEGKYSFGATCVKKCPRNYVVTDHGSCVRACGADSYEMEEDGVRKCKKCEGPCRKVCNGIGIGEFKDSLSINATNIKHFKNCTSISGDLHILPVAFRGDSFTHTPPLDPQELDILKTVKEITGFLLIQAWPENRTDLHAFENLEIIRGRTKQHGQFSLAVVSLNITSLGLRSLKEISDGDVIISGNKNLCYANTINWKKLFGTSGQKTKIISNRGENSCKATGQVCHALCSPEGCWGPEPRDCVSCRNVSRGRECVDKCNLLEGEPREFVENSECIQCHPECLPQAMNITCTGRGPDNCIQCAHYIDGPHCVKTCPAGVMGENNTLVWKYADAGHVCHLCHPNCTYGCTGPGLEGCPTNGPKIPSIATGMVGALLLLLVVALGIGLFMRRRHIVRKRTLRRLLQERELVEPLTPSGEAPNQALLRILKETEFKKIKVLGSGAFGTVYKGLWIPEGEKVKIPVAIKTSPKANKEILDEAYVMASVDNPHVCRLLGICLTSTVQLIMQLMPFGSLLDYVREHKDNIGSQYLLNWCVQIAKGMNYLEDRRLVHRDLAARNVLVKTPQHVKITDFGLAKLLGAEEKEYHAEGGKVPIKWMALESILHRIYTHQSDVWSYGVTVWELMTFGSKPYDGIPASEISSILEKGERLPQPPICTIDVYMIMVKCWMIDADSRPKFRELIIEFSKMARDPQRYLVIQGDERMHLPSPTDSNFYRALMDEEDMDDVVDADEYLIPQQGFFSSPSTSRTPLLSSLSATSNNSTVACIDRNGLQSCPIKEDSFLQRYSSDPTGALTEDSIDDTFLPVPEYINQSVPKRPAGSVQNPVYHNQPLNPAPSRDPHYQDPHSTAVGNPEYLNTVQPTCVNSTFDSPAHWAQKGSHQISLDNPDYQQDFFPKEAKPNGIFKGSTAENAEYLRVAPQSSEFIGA
# Method: as §1, §2
# [4] = biological target: EGFR (L858R/T790M/C797S) (Homo sapiens, UniProt P00533, C797S/L858R/T790M); test: HTRF inhibitory activity assay against EGFR (L858R/T790M/C797S) enzyme; assay type: biochemical; conditions: read-out: EGFR (L858R/T790M/C797S) inhibition (%) (0.3 nM compound)
# Sequence of EGFR (L858R/T790M/C797S) (P00533 25-1210 T790M/C797S/L858R): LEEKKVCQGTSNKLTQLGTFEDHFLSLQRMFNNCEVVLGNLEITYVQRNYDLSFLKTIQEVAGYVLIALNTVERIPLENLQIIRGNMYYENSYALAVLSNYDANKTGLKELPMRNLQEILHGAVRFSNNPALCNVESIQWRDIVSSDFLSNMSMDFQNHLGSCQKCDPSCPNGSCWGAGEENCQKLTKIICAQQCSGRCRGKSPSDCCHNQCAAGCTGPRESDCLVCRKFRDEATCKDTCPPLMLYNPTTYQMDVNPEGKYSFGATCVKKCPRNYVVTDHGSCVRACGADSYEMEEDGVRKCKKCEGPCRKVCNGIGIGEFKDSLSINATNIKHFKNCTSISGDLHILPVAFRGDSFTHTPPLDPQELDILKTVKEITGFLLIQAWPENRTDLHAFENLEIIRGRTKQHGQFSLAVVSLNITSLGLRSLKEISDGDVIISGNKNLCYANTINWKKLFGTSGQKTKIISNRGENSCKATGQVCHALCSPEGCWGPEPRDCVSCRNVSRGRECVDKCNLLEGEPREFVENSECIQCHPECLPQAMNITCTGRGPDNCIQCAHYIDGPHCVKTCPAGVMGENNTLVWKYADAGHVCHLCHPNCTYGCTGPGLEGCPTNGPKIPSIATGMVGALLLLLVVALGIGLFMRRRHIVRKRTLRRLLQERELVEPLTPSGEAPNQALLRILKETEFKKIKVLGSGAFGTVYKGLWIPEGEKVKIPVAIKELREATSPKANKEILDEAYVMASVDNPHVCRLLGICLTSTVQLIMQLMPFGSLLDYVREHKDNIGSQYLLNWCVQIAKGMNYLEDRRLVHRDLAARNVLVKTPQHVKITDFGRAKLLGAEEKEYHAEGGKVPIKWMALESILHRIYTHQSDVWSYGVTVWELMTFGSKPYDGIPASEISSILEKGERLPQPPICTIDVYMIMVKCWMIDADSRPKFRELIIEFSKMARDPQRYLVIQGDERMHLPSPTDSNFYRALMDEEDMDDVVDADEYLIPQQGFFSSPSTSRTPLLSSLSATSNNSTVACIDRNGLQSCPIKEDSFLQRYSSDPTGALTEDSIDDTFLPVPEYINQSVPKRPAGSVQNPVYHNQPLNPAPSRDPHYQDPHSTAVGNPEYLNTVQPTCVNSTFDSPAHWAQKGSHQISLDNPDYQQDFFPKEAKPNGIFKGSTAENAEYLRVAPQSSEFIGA
# Method: Inhibitory Activity Assay of the Compounds Disclosed Herein Against EGFR (del19/T790M/C797S), EGFR (L858R/T790M/C797S) or EGFR (WT) Enzymes
# The inhibitory effects of the compounds against EGFR (del19/T790M/C797S), EGFR (L858R/T790M/C797S) or EGFR (WT) enzyme activity was determined by using HTRF. The procedures are as follows:
# The WT or mutant EGFR proteins were incubated with a serially diluted compounds at 28° C. for 10 min followed by addition of biotin-labeled general tyrosine kinase (TK) substrate and ATP. The mixture was incubated at room temperature for 40 min for reaction. After the termination of the reaction, an Eu3+-Cryptate-labeled antibody against TK and streptavidin-XL665 were added and the mixture was incubated at room temperature for 60 min. The luminescences at 615 nm and 665 nm were detected and the ratio of 665/615 was calculated to quantify the level of TK substrate phosphorylation. Inhibition % and IC50 of the compounds were calculated relative to the control group.
IC50 [2],GI50 [3],inhibition at 0.0003 µM [4],SMILES,EGFR (del19/T790M/C797S) inhibition (%) (0.3 nM compound) [1]
540 nM,65 nM,–,CN1CCN(C2CCN(c3ccc(Nc4nc(N[C@H]5C[C@@H](O)C5)c(-c5ccccc5)nc4C(N)=O)cc3)CC2)CC1 [compound 31],+++ (+++ indicates an inhibition greater than 50%.)
190 nM,26 nM,–,CN1CCN(C2CCN(c3ccc(Nc4nc(N[C@H]5C[C@H](O)C5)c(-c5ccccc5)nc4C(N)=O)cc3)CC2)CC1 [compound 32],+++ (+++ indicates an inhibition greater than 50%.)
> 2000 nM,48 nM,–,CN1CCN(C2CCN(c3ccc(Nc4nc(NC5CCOCC5)c(-c5cccnc5)nc4C(N)=O)cc3)CC2)CC1 [compound 37],+ (+ indicates an inhibition less than or equal to 20%)
3500 nM,> 100 nM,–,CN1CCN(C2CCN(c3ccc(Nc4nc(NCCS(C)(=O)=O)c(-c5ccccc5)nc4C(N)=O)cc3)CC2)CC1 [compound 54],+ (+ indicates an inhibition less than or equal to 20%)
–,–,≤ 20%,CN1CCN(C2CCN(c3ccc(Nc4nc(NC5CCOCC5)c(-c5cccc(F)c5)nc4C(N)=O)cc3)CC2)CC1 [compound 60],++ (++ indicates an inhibition from 20% to 50%)
–,–,≤ 20%,CN1CCN(C2CCN(c3ccc(Nc4nc(NC5CCOCC5)c(-c5ccco5)nc4C(N)=O)cc3)CC2)CC1 [compound 69],+ (+ indicates an inhibition less than or equal to 20%)
–,–,≤ 20%,CN1CCN(C2CCN(c3ccc(Nc4nc(NC5CCOCC5)c(-c5cccs5)nc4C(N)=O)cc3)CC2)CC1 [compound 94],++ (++ indicates an inhibition from 20% to 50%)
1600 nM,> 100 nM,–,CN1CCN(C2CCN(c3ccc(Nc4nc(NC5CCOCC5)c(-c5ccc(O)cc5)nc4C(N)=O)cc3)CC2)CC1 [compound 96],++ (++ indicates an inhibition from 20% to 50%)
190 nM,23 nM,–,Cc1cc(-c2nc(C(N)=O)c(Nc3ccc(N4CCC(N5CCN(C)CC5)CC4)cc3)nc2NC2CCOCC2)ccn1 [compound 108],+++ (+++ indicates an inhibition greater than 50%.)
460 nM,> 100 nM,–,Cc1n[nH]cc1-c1nc(C(N)=O)c(Nc2ccc(N3CCC(N4CCN(C)CC4)CC3)cc2)nc1NC1CCOCC1 [compound 110],+ (+ indicates an inhibition less than or equal to 20%)
120 nM,105 nM,–,Cc1c[nH]nc1-c1nc(C(N)=O)c(Nc2ccc(N3CCC(N4CCN(C)CC4)CC3)cc2)nc1NC1CCOCC1 [compound 111],+ (+ indicates an inhibition less than or equal to 20%)
4100 nM,82 nM,–,CN1CCN(c2ccc(Nc3nc(NC4CCOCC4)c(-c4ccncc4)nc3C(N)=O)cc2)CC1 [compound 118],++ (++ indicates an inhibition from 20% to 50%)
> 10000 nM,> 100 nM,–,NC(=O)c1nc(-c2ccncc2)c(NC2CCOCC2)nc1Nc1ccccc1 [compound 119],+ (+ indicates an inhibition less than or equal to 20%)
680 nM,119 nM,–,CN1CCN(Cc2ccc(Nc3nc(NC4CCOCC4)c(-c4ccncc4)nc3C(N)=O)cc2)CC1 [compound 120],+ (+ indicates an inhibition less than or equal to 20%)
380 nM,40 nM,–,CN1CCN(C2CCN(c3ccc(Nc4nc(NC5CCOCC5)c(-c5ccncc5)nc4C(N)=O)cc3F)CC2)CC1 [compound 122],+++ (+++ indicates an inhibition greater than 50%.)
> 10000 nM,140 nM,–,NC(=O)c1nc(-c2ccncc2)c(NC2CCOCC2)nc1Nc1ccc(CN2CCOCC2)cc1 [compound 123],++ (++ indicates an inhibition from 20% to 50%)

IC50 [2],GI50 [3],inhibition at 0.0003 µM [4],SMILES,EGFR (del19/T790M/C797S) inhibition (%) (0.3 nM compound) [1]
> 10000 nM,> 100 nM,–,CN(C)c1ccc(Nc2nc(NC3CCOCC3)c(-c3ccncc3)nc2C(N)=O)cc1 [compound 124],+ (+ indicates an inhibition less than or equal to 20%)
–,–,20 to 50%,"CN1CCN(C2CCN(c3ccc(Nc4nc(N[C@@H]5CC[C@@H](O)C5)c(-c5ccccc5)nc4C(N)=O)cc3)CC2)CC1 [compound 137, 5-(((1R,3R)-3-hydroxycyclopentyl)amino)-3-((4-(4-(4-methylpiperazin-1-yl)piperidin-1-yl)phenyl)amino)-6-phenylpyrazine-2-carboxamide]",++ (++ indicates an inhibition from 20% to 50%)
690 nM,19 nM,–,Cc1cc(Nc2nc(NC3CCOCC3)c(-c3cc[nH]n3)nc2C(N)=O)ccc1N1CCC(N2CCN(C)CC2)CC1 [compound 177],++ (++ indicates an inhibition from 20% to 50%)
20 nM,6 nM,–,CN1CCN(C2CCN(c3ccc(Nc4nc(NC5CCOCC5)c(-c5ccnc6[nH]ccc56)nc4C(N)=O)cc3)CC2)CC1 [compound 512],+++ (+++ indicates an inhibition greater than 50%.)
–,–,> 50%,CN1CCN(C2CCN(c3ccc(Nc4nc(NC5CCOCC5)c(-c5cccc6[nH]ccc56)nc4C(N)=O)cc3F)CC2)CC1 [compound 519],+++ (+++ indicates an inhibition greater than 50%.)
–,–,> 50%,CN1CCN(C2CCN(c3ccc(Nc4nc(NC5CCC5)c(-c5cccc6[nH]ccc56)nc4C(N)=O)cc3)CC2)CC1 [compound 523],+++ (+++ indicates an inhibition greater than 50%.)
–,–,> 50%,CN1CCN(C2CCN(c3ccc(Nc4nc(NC5CCCC5)c(-c5cccc6[nH]ccc56)nc4C(N)=O)cc3)CC2)CC1 [compound 524],+++ (+++ indicates an inhibition greater than 50%.)
60 nM,25 nM,–,CN1CCN(C2CCN(c3ccc(Nc4nc(N[C@H]5C[C@H](O)C5)c(-c5cccc6[nH]ccc56)nc4C(N)=O)cc3)CC2)CC1 [compound 525],+++ (+++ indicates an inhibition greater than 50%.)
70 nM,13 nM,–,CN1CCN(C2CCN(c3ccc(Nc4nc(NCC(C)(C)O)c(-c5cccc6[nH]ccc56)nc4C(N)=O)cc3)CC2)CC1 [compound 528],+++ (+++ indicates an inhibition greater than 50%.)
50 nM,18 nM,–,CN1CCN(C2CCN(c3ccc(Nc4nc(N[C@@H]5CCC[C@@H]5O)c(-c5cccc6[nH]ccc56)nc4C(N)=O)cc3)CC2)CC1 [compound 529],+++ (+++ indicates an inhibition greater than 50%.)
–,–,> 50%,CN1CCN(C2CCN(c3ccc(Nc4nc(NC5CCC5)c(-c5cccc6[nH]ccc56)nc4C(N)=O)cc3F)CC2)CC1 [compound 532],+++ (+++ indicates an inhibition greater than 50%.)
–,–,> 50%,CN1CCN(C2CCN(c3ccc(Nc4nc(N[C@H]5CC[C@H](O)CC5)c(-c5cccc6[nH]ccc56)nc4C(N)=O)cc3F)CC2)CC1 [compound 535],+++ (+++ indicates an inhibition greater than 50%.)
1200 nM,48 nM,–,CN1CCN(C2CCN(c3ccc(Nc4nc(NC5CCOCC5)c(-c5cccc6[nH]cnc56)nc4C(N)=O)cc3)CC2)CC1 [compound 540],–
360 nM,21 nM,–,CC(C)Nc1nc(Nc2ccc(N3CCC(N4CCN(C)CC4)CC3)cc2)c(C(N)=O)nc1-c1ccncc1 [compound 611],+++ (+++ indicates an inhibition greater than 50%.)
360 nM,32 nM,–,CC(C)Nc1nc(Nc2ccc(N3CCC(N4CCN(C)CC4)CC3)cc2)c(C(N)=O)nc1-c1cc[nH]n1 [compound 616],+++ (+++ indicates an inhibition greater than 50%.)
